In one experiment the test system is Escherichia coli. Briefly: Minimum inhibitory concentration required for primary screening against in-house strain of Escherichia coli tested in vitro. It counts as functional.
The test system of another experiment is Staphylococcus capitis. Briefly: Minimum inhibitory concentration required for primary screening against in-house strain of Staphylococcus capitis tested in vitro. It counts as functional.
The next experiment addresses T1, Peptide deformylase (Escherichia coli, UniProt Q9JN24).
T1 sequence (Q9JN24 whole entry): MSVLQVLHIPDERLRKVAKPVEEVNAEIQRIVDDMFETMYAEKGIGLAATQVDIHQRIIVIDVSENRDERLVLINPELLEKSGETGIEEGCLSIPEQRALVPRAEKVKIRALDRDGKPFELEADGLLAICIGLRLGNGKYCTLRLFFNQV
Briefly: Inhibitory activity against Escherichia coli peptide deformylase (PDF) Nickel containing enzyme.

For experiment [1], the system named is Haemophilus influenzae. The experiment can be described thus: Minimum inhibitory concentration required for primary screening against in-house strain of Haemophilus influenzae tested in vitro; Range-0.125-2. It counts as functional.
Experiment [2] has as its system Moraxella catarrhalis. The experiment can be described thus: Minimum inhibitory concentration required for primary screening against in-house strain of Moraxella catarrhalis tested in vitro. It counts as functional.
The subject of experiment [3] is Streptococcus pneumoniae. Briefly: Minimum inhibitory concentration required for primary screening against in-house strain of Streptococcus pneumoniae tested in vitro; Range- 0.5-1. It counts as functional.
Experiment [4] concerns Haemophilus influenzae. The experiment can be described thus: Minimum inhibitory concentration required for primary screening against in-house strain of Haemophilus influenzae tested in vitro; Range- 0.25-2. In kind it is functional.
Experiment [5] concerns Streptococcus pneumoniae. The experiment can be described thus: Minimum inhibitory concentration required for primary screening against in-house strain of Streptococcus pneumoniae tested in vitro; Range- 1-2. It counts as functional.
The test system of experiment [6] is Haemophilus influenzae. Briefly: Minimum inhibitory concentration required for primary screening against in-house strain of Haemophilus influenzae tested in vitro; Range- 0.5-4. In kind it is functional.
For experiment [7], the system named is Moraxella catarrhalis. The experiment can be described thus: Minimum inhibitory concentration required for primary screening against in-house strain of Moraxella catarrhalis tested in vitro; Range- 0.015-0.12. In kind it is functional.
For experiment [8], the system named is Streptococcus pneumoniae. The experiment can be described thus: Minimum inhibitory concentration required for primary screening against in-house strain of Streptococcus pneumoniae tested in vitro; Range- 0.25-0.5. It counts as functional.
Experiment [9] concerns Streptococcus pneumoniae. The experiment can be described thus: Minimum inhibitory concentration required for primary screening against in-house strain of Streptococcus pneumoniae tested in vitro; Range- 0.06-2. It counts as functional.
Experiment [10] concerns Streptococcus pneumoniae. The experiment can be described thus: Minimum inhibitory concentration required for primary screening against in-house strain of Streptococcus pneumoniae tested in vitro. In kind it is functional.
Experiment [11] relates to Haemophilus influenzae. The experiment can be described thus: Minimum inhibitory concentration required for primary screening against in-house strain of Haemophilus influenzae tested in vitro; Range- 0.5-8. It counts as functional.
Experiment [12] concerns Moraxella catarrhalis. Briefly: Minimum inhibitory concentration required for primary screening against in-house strain of Moraxella catarrhalis tested in vitro; Range- 0.125-0.25. It counts as functional.

≈ marks a conversion by molar mass, not a printed value.

As to `CCCC[C@H](CN(O)C=O)C(=O)N[C@H](C(=O)c1ccccc1)C(C)(C)C`, the MIC against Escherichia coli and in the experiment with Staphylococcus capitis was 12.5 µM (≈ 4.53 µg/mL) in each case.
For `CCCC[C@H](CN(O)C=O)C(=O)N[C@H](C(=O)c1ccc(NS(C)(=O)=O)cc1)C(C)(C)C`, half-maximal inhibition against Peptide deformylase (IC50) was put at 4 nM.
Same read-out and setting: in the case of `CCCC[C@H](CN(O)C=O)C(=O)N[C@H](C(=O)c1ccc(OC)cc1)C(C)(C)C` it was 1 nM.
With `CC(C)(C)[C@H](NC(=O)[C@H](CC1CCCC1)CN(O)C=O)C(=O)c1ccc(S(C)(=O)=O)cc1`, the MIC worked out at 25 µM (≈ 11.7 µg/mL) in the experiment with Escherichia coli and 6.25 µM (≈ 2.92 µg/mL) against Staphylococcus capitis. For the same compound, on Peptide deformylase, half-maximal inhibition (IC50) required 10 nM.
Regarding `CC(C)(C)[C@H](NC(=O)[C@H](CC1CCCC1)CN(O)C=O)C(=O)c1ccc(N2CCN(CCO)CC2)c(F)c1`, the MIC in the experiment on Haemophilus influenzae [1] is less than 2 µg/mL; against Moraxella catarrhalis [2], less than 0.125 µg/mL; in the experiment on Streptococcus pneumoniae [3] it was less than 1 µg/mL.
Turning to `CC(C)(C)[C@H](NC(=O)[C@H](CC1CCCC1)CN(O)C=O)C(=O)c1ccc(N2CCN(CCO)CC2)cc1`, the MIC in the experiment on Haemophilus influenzae [4] is less than 2 µg/mL; with Moraxella catarrhalis [2], less than 0.125 µg/mL; against Streptococcus pneumoniae [5], less than 2 µg/mL. Also, half-maximal inhibition on Peptide deformylase (IC50) was put at 2 nM.
With `CCCC[C@H](CN(O)C=O)C(=O)N[C@H](C(=O)c1ccc(F)cc1)C(C)(C)C`, the IC50 against Peptide deformylase stood at 3 nM.
On to `CC(C)(C)[C@H](NC(=O)[C@H](CC1CCCC1)CN(O)C=O)C(=O)c1cc(F)c(F)cc1N1CCOCC1`, for which the MIC90 against Haemophilus influenzae [6] came to 2 µg/mL (≈ 3.92 µM); against Moraxella catarrhalis [7] it was 0.12 µg/mL (≈ 0.235 µM); against Streptococcus pneumoniae [9] it was 1 µg/mL (≈ 1.96 µM). For the same compound, the MIC was less than 2 µg/mL in the experiment on Haemophilus influenzae [4], less than 0.125 µg/mL in the experiment on Moraxella catarrhalis [2] and less than 0.5 µg/mL against Streptococcus pneumoniae [8]. The compound also returned an IC50 against Peptide deformylase of 0.5 nM.
Consider `CC(C)(C)[C@H](NC(=O)[C@H](CC1CCCC1)CN(O)C=O)C(=O)c1ccc(N2CCOCC2)c(F)c1`, for which the MIC against Haemophilus influenzae [6] is less than 4 µg/mL; against Moraxella catarrhalis [2], less than 0.125 µg/mL; in the experiment with Streptococcus pneumoniae [10], 0.25 µg/mL (≈ 0.509 µM). At Peptide deformylase, 0.6 nM corresponded to half-maximal inhibition (IC50).
On Peptide deformylase, `CCCC[C@H](CN(O)C=O)C(=O)N[C@H](C(=O)c1ccccn1)C(C)(C)C` showed a half-maximal inhibitory concentration (IC50) of 3 nM.
The compound `CCCC[C@H](CN(O)C=O)C(=O)N[C@H](C(=O)c1cc2ccccc2o1)C(C)(C)C` yielded an IC50 against Peptide deformylase of 4 nM. The compound further displayed an MIC in the experiment with Staphylococcus capitis of 1.5 µM (≈ 0.604 µg/mL).
For the compound `CC(C)(C)[C@H](NC(=O)[C@H](CC1CCCC1)CN(O)C=O)C(=O)c1cc2ccccc2o1`, the IC50 against Peptide deformylase was 4 nM.
For the compound `CC(C)(C)[C@H](NC(=O)[C@H](CC1CCCC1)CN(O)C=O)C(=O)c1ccc(O)cc1`, the results for the MIC with Escherichia coli and with Staphylococcus capitis were 6.25 µM (≈ 2.53 µg/mL) and 3.1 µM (≈ 1.25 µg/mL), respectively. The same compound showed an IC50 against Peptide deformylase of 2 nM.
Turning to `COc1ccc(C(=O)[C@@H](NC(=O)[C@H](CC2CCCC2)CN(O)C=O)C(C)(C)C)cc1`, at Peptide deformylase, the IC50 is 3 nM.
Regarding `CC(C)(C)[C@H](NC(=O)[C@H](CC1CCCC1)CN(O)C=O)C(=O)c1ccc(N2CCN(CCN3CCCC3)CC2)c(F)c1`, the MIC against Haemophilus influenzae [11] is less than 8 µg/mL; against Moraxella catarrhalis [12] it was less than 0.25 µg/mL; in the experiment on Streptococcus pneumoniae [8], less than 0.5 µg/mL. The compound further came in with an IC50 on Peptide deformylase of 9 nM.
Regarding `CCCC[C@H](CN(O)C=O)C(=O)N[C@H](C(=O)c1ccc(NC(C)=O)cc1)C(C)(C)C`, the MIC against Escherichia coli is 12 µM (≈ 5.03 µg/mL). Moreover, on Peptide deformylase, half-maximal inhibition (IC50) required 8 nM.
With `CC(C)(C)[C@H](NC(=O)[C@H](CC1CCCC1)CN(O)C=O)C(=O)c1ccc(N2CCC(O)CC2)cc1`, the MIC against Haemophilus influenzae [4] is less than 2 µg/mL; against Moraxella catarrhalis [2] it was less than 0.125 µg/mL; in the experiment with Streptococcus pneumoniae [10], 0.25 µg/mL (≈ 0.513 µM). Moreover, the 50% inhibitory concentration (IC50) against Peptide deformylase was 2 nM.
With `CC(C)(C)[C@H](NC(=O)[C@H](CC1CCCC1)CN(O)C=O)C(=O)c1ccc(F)cc1`, on Peptide deformylase, half-maximal inhibition (IC50) was put at 3 nM.
Take `CC(C)(C)[C@H](NC(=O)[C@H](CC1CCCC1)CN(O)C=O)C(=O)c1cc(F)c(F)cc1N1CCC(O)CC1`: the figures for the MIC in the experiment on Haemophilus influenzae [4], against Moraxella catarrhalis [2] and against Streptococcus pneumoniae [8] were less than 2 µg/mL, less than 0.125 µg/mL and less than 0.5 µg/mL, respectively. The compound also showed an IC50 on Peptide deformylase of 1 nM.

Broadly, the IC50 is the point on the concentration scale where inhibition reaches its midpoint.
